Results reported in US10077261B2, “Imidazolin-5-one derivative useful as FASN inhibitors for the treatment of cancer” (Janssen Pharmaceutica NV, priority 2012, dated 2018).

Target: T1, hFASN enzyme (full length) (Homo sapiens, UniProt P49327)
T1 construct: 10 μL hFASN enzyme (full length, 300 ng, purified in house); made in house
Assay: Fatty Acid Synthase (FASN) inhibition scintillation proximity assay
Assay type: biochemical
Conditions: for inhibition at 10 µM: read-out: Human FASN % inhibition @ 10 μM, 10 μM test compound; for IC50: read-out: Human FASN pIC50 (converted)
Summary of the method: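 Read-out relies on hydrophobic ³H-palmitate product, formed from ³H-acetyl-CoA and malonyl-CoA, binding streptavidin imaging beads, measured at 610±20 nm after at least 24 h. Full-length enzyme (300 ng) in phosphate buffer pH 7.5 with DTT; eight compound concentrations, 0.01–30 μM.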

T1 sequence (P49327 whole entry): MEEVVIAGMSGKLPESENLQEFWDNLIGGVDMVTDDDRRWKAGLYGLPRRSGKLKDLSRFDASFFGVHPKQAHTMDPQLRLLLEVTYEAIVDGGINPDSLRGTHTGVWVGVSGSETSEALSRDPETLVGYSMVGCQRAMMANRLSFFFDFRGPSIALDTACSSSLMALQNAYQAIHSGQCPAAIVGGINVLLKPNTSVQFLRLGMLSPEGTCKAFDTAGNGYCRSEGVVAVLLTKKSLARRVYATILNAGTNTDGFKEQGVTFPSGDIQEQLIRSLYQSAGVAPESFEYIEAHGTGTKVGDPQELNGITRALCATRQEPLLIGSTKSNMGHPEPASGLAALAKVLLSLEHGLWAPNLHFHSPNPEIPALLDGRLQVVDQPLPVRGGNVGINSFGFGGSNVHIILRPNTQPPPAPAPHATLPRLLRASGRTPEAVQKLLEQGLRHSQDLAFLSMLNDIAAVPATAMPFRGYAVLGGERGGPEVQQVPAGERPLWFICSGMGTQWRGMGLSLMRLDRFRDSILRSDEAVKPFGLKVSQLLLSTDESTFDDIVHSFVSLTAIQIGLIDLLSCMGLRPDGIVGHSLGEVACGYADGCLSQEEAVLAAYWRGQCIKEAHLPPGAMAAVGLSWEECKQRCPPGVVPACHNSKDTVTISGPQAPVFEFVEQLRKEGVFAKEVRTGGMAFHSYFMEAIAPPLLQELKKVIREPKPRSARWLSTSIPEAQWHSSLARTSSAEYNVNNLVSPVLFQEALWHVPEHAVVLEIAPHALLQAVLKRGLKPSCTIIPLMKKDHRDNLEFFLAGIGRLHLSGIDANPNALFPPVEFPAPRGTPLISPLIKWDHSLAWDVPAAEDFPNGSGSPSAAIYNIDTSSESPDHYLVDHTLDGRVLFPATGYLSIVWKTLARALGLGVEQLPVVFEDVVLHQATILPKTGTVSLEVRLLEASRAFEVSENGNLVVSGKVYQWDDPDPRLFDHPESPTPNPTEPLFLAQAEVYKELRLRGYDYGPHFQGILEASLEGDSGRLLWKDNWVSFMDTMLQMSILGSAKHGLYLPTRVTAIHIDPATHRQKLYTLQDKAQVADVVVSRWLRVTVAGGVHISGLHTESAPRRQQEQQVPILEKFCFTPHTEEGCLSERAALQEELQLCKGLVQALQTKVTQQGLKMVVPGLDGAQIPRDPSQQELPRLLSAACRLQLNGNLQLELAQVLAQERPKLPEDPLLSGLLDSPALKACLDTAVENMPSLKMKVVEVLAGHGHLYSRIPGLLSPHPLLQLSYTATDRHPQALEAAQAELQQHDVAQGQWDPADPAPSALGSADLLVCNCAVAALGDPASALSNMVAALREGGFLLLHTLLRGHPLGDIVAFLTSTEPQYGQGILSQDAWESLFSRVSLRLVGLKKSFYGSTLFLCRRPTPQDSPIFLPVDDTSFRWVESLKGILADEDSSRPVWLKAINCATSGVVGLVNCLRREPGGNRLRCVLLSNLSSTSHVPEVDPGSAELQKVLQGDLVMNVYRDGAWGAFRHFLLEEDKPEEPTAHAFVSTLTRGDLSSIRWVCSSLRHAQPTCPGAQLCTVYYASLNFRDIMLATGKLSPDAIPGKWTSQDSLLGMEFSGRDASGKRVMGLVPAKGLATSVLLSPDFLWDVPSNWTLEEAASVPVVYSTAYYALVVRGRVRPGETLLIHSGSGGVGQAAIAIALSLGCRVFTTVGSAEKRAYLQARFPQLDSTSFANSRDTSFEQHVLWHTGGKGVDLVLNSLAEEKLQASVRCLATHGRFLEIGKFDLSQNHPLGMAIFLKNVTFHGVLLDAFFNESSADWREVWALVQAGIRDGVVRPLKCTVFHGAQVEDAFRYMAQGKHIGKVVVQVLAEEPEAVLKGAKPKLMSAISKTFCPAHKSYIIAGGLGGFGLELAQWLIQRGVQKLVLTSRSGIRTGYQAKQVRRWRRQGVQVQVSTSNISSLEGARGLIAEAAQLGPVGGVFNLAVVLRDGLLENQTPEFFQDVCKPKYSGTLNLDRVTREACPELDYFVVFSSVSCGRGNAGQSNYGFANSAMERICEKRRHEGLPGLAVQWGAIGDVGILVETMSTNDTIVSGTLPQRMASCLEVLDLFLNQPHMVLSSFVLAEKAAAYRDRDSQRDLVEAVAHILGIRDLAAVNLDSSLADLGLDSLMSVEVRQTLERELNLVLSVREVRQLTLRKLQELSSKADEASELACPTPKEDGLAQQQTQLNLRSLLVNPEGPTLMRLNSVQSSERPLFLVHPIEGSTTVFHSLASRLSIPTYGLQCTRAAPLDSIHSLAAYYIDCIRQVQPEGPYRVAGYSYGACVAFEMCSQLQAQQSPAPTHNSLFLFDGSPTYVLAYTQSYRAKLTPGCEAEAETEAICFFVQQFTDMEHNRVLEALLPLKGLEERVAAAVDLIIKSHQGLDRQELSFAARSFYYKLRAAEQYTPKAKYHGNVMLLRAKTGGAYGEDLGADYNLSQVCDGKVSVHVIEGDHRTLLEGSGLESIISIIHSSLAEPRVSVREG

Row | Compound | inhibition at 10 µM | IC50
1 | Cn1cc(-c2ccc(-c3ccc(C4=NC5(CCN(C(=O)C6CC6)CC5)C(=O)N4CC4CN(C(=O)C5CC5)C4)cc3)cc2)cn1 [compound 770, 8-(Cyclopropylcarbonyl)-3-{[1-(cyclopropylcarbonyl)azetidin-3-yl]methyl}-2-[4′-(1-methyl-1H-pyrazol-4-yl)biphenyl-4-yl]-1,3,8-triazaspiro[4.5]dec-1-en-4-one] | 77% | 2.19 µM
2 | CC(C)N1CCC2(CC1)N=C(c1ccc(-c3ccc(-c4cnn(C)c4)cc3)cc1)N(CC1CN(C(=O)C3CC3)C1)C2=O [compound 771, 3-{[1-(Cyclopropylcarbonyl)azetidin-3-yl]methyl}-8-(1-methylethyl)-2-[4′-(1-methyl-1H-pyrazol-4-yl)biphenyl-4-yl]-1,3,8-triazaspiro[4.5]dec-1-en-4-one] | 44% | 7.59 µM
3 | Cn1cc(-c2ccc(-c3ccc(C4=NC5(CCN(CCO)CC5)C(=O)N4CC4CN(C(=O)C5CC5)C4)cc3)cc2)cn1 [compound 772, 3-{[1-(Cyclopropylcarbonyl)azetidin-3-yl]methyl}-8-(2-hydroxyethyl)-2-[4′-(1-methyl-1H-pyrazol-4-yl)biphenyl-4-yl]-1,3,8-triazaspiro[4.5]dec-1-en-4-one] | 64% | 3.98 µM
4 | Cc1cc(-c2ccc3c(cnn3C)c2)ccc1C1=NC2(CC2)C(=O)N1CC1CN(C(=O)C2(O)CCC2)C1 [compound 796, 6-((1-(1-hydroxycyclobutanecarbonyl)azetidin-3-yl)methyl)-5-(2-methyl-4-(1-methyl-1H-indazol-5-yl)phenyl)-4,6-diazaspiro[2.4]hept-4-en-7-one] | 19% | > 10 µM
5 | CC(C)(O)c1ccc(-c2ccc(C3=NC4(CC4)C(=O)N3CC3CN(C(=O)C4CC4)C3)cc2)cn1 [compound 797, 6-((1-(cyclopropanecarbonyl)azetidin-3-yl)methyl)-5-(4-(6-(2-hydroxypropan-2-yl)pyridin-3-yl)phenyl)-4,6-diazaspiro[2.4]hept-4-en-7-one] | 1% | > 10 µM
6 | O=C(C1CC1)N1CC(CN2C(=O)C3(CC3)N=C2c2ccc(-c3ccc(C4CC4)nc3)cc2)C1 [compound 798, 6-((1-(cyclopropanecarbonyl)azetidin-3-yl)methyl)-5-(4-(6-cyclopropylpyridin-3-yl)phenyl)-4,6-diazaspiro[2.4]hept-4-en-7-one] | 30% | > 10 µM
7 | O=C(C1CC1)N1CC(CN2C(=O)C3(CC3)N=C2c2ccc(-c3cnc4ncccc4c3)cc2)C1 [compound 799, 5-(4-(1,8-baphthyridin-3-yl)phenyl)-6-((1-(cyclopropanecarbonyl)azetidin-3-yl)methyl)-4,6-diazaspiro[2.4]hept-4-en-7-one] | 39% | > 10 µM
8 | N#CC1(c2ccc(-c3ccc(C4=NC5(CC5)C(=O)N4CC4CN(C(=O)C5CC5)C4)cc3)cn2)CC1 [compound 800, 1-(5-(4-(6-((1-(cyclopropanecarbonyl)azetidin-3-yl)methyl)-7-oxo-4,6-diazaspiro[2.4]hept-4-en-5-yl)phenyl)pyridin-2-yl)cyclopropanecarbonitrile] | 16% | > 10 µM
9 | O=C(C1CC1)N1CC(CN2C(=O)C3(CC3)N=C2c2ccc(-c3cnc4cccnc4c3)cc2)C1 [compound 801, 5-(4-(1,5-naphthyridin-3-yl)phenyl)-6-((1-(cyclopropanecarbonyl)azetidin-3-yl)methyl),4-6diazaspiro[2.4]hept-4-en-7-one] | 6% | > 10 µM
10 | O=C(C1CC1)N1CC[C@@H](CN2C(=O)C3(CC3)N=C2c2ccc(-c3cncc(Cl)c3)cc2)C1 [compound 802, (R)-5-(4-(5-chlorppyridin-3-yl)phenyl)-6-((1-(cyclopropanecarbonyl)pyrrolidin-3-yl)methyl)-4,6-diazaspiro[2.4]hept-4-en-7-one] | 24% | > 10 µM
11 | O=C(C1CC1)N1CC(CN2C(=O)C3(CC3)N=C2c2ccc(-c3ccc4c(cnn4C4CC4)c3)cc2)C1 [compound 803, 6-((1-(cyclopropanecarbonyl)azetidin-3-yl)methyl)-5-(4-(1-cyclopropyl-1H-indazol-5-yl)phenyl)-4,6-diazaspiro[2.4]hept-4-en-7-one] | 48% | > 10 µM
12 | O=C(C1CC1)N1CC(CN2C(=O)C3(CC3)N=C2c2ccc(-c3ccc4c(cnn4CC4CC4)c3)cc2)C1 [compound 804, 6-((1-(cyclopropanecarbonyl)azetidin-3-yl)methyl)-5-(4-(1-(cyclopropylmethyl)-1H-indazol-5-yl)phenyl)-4,6-diazaspiro[2.4]hept-4-en-7-one] | 41% | > 10 µM
13 | Cc1cc(-c2ccc3c(cnn3C)c2)ccc1C1=NC2(CC2)C(=O)N1CC1CN(C(=O)c2cccnc2)C1 [compound 805, 5-(2-methyl-4-(1-methyl-1H-indazol-5-yl)phenyl)-6-((1-nicotinoylazetidin-3-yl)methyl)-4,6-diazaspiro[2.4]hept-4-en-7-one] | 14% | > 10 µM

The remaining lines, values ahead:

Row | inhibition at 10 µM | IC50 | Compound
14 | -6% | > 10 µM | O=C(C1CC1)N1CC(CN2C(=O)C3(CC3)N=C2c2ccc(-c3ccc(N4CCOCC4)nc3)cc2)C1 [compound 806, 6-((1-(cyclopropanecarbonyl)azetidin-3-yl)methyl)-5-(4-(6-morpholinopyridin-3-yl)phenyl)-4,6-diazaspiro[2.4]hept-4-en-7-one]
15 | 7% | > 10 µM | CC(C)n1ncc2cc(-c3ccc(C4=NC5(CC5)C(=O)N4CC4CN(C(=O)C5CC5)C4)cc3)ccc21 [compound 807, 6-((1-(cyclopropanecarbonyl)azetidin-3-yl)methyl)-5-(4-(1-isopropyl-1H-indazol-5-yl)phenyl)-4,6-diazaspiro[2.4]hept-4-en-7-one]
16 | 31% | > 10 µM | CC(C)n1cc2cc(-c3ccc(C4=NC5(CC5)C(=O)N4CC4CN(C(=O)C5CC5)C4)cc3)ccc2n1 [compound 808, 6-((1-(cyclopropanecarbonyl)azetidin-3-yl)methyl)-5-(4-(2-isopropyl-2H-indazol-5-yl)phenyl)-4,6-diazaspiro[2.4]hept-4-en-7-one]
17 | 29% | > 10 µM | O=C1CCc2ccc(-c3ccc(C4=NC5(CC5)C(=O)N4C[C@@H]4CCN(C(=O)C5CC5)C4)cc3)cc2N1 [compound 809, (R)-7-(4-(6-((1-(cyclopropanecarbonyl)pyrrolidin-3-yl)methyl)-7-oxo-4,6-diazaspiro[2.4]hept-4-en-5-yl)phenyl)-3,4-dihydroquinolin-2(1H)-one]
18 | 35% | > 10 µM | CC(C)n1cc2cc(-c3ccc(C4=NC5(CC5)C(=O)N4C[C@@H]4CCN(C(=O)C5CC5)C4)cc3)ccc2n1 [compound 811, (R)-6-((1-(cyclopropanecarbonyl)pyrrolidin-3-yl)methyl)-5-(4-(2-isopropyl-2H-indazol-5-yl)phenyl)-4,6-diazaspiro[2.4]hept-4-en-7-one]
19 | 5% | > 10 µM | Cc1ccc(-c2ccc(-c3ccc(C4=NC5(CC5)C(=O)N4C[C@H]4CCCN(C(=O)C5CC5)C4)cc3)cc2)cc1 [compound 812, (S)-6-((1-(cyclopropanecarbonyl)piperidin-3-yl)methyl)-5-(4″-methyl[1,1′:4′,1″- terphenyl]-4-yl)-4,6-diazaspiro[2.4]hept-4-en-7-one]
20 | 2% | > 10 µM | O=C(C1CC1)N1CCC[C@H](CN2C(=O)C3(CC3)N=C2c2ccc(-c3ccc(-c4cccc(Cl)c4)cc3)cc2)C1 [compound 813, (S)-5-(3″-chloro-[1,1′:4′,1″-tertphenyl]-4-yl)-6-((1-(cyclopropanecarbonyl)piperidin-3-yl)methyl)-4,6-diazaspiro[2.4]hept-4-en-7-one]
21 | 39% | > 10 µM | Cc1cc(C2=NC3(CC3)C(=O)N2CC2CN(C(=O)C3CC3)C2)ccc1-c1ccc2oc(C)c(C)c2c1 [compound 814, 6-((1-(cyclopropanecarbonyl)azetidin-3-yl)methyl)-5-(4-(2,3-dimethylbenzofuran-5-yl)-3-methylphenyl)-4,6-diazaspiro[2.4]hept-4-en-7-one]
22 | 1% | > 10 µM | Cn1cc(-c2ccc(-c3ccc(C4=NC5(CC5)C(=O)N4C[C@H]4CCCN(C(=O)C5CC5)C4)cc3)cc2)cn1 [compound 815, (S)-6-((1-(cyclopropanecarbonyl)piperidin-3-yl)methyl)-5-(4′-(1-methyl-1H-pyrazol-4-yl)-[1,1′-biphenyl]-4-yl)-4,6-diazaspiro[2.4]hept-4-en-7-one]
23 | 4% | > 10 µM | O=C(C1CC1)N1CCC[C@H](CN2C(=O)C3(CC3)N=C2c2ccc(-c3ccc4[nH]ncc4c3)cc2)C1 [compound 816, (S)-5-(4-(1H-indazol-5-yl)phenyl)-6-((1-(cyclopropanecarbonyl)piperidin-3-yl)methyl)-4,6-diazaspiro[2.4]hept-4-en-7-one]
24 | 1% | > 10 µM | O=C(C1CC1)N1CCC[C@H](CN2C(=O)C3(CC3)N=C2c2ccc(-c3ccc4sccc4c3)cc2)C1 [compound 817, (S)-5-(4-(benzo[b]thiophen-5-yl)phenyl)-6-((1-(cyclopropanecarbonyl)piperidin-3-yl)methyl)-4,6-diazaspiro[2.4]hept-4-en-7-one]
25 | 2% | > 10 µM | O=C(C1CC1)N1CCC[C@H](CN2C(=O)C3(CC3)N=C2c2ccc(-c3ccc4occc4c3)cc2)C1 [compound 818, (S)-5-(4-(benzofuran-5-yl)phenyl)-6-((1-(cyclopropanecarbonyl)piperidin-3-yl)methyl)-4,6-diazaspiro[2.4]hept-4-en-7-one]
